Measurements taken from ChEMBL document CHEMBL3431459, “Roche carnitine palmitoyltransferase modulator screening data (supplementary data associated with the publication CHEMBL2216752)”.
Values after ≈ are worked out from the molar mass of the structure shown.

Key:
[1] = molecular target: T1, Carnitine O-palmitoyltransferase 1, muscle isoform (Homo sapiens, UniProt Q92523); experiment: SUPPLEMENTARY: Inhibition of Carnitine palmitoyltransferase 1, muscle isoform; parameters: species or system Muscle tissue
T1 sequence (Q92523 whole entry): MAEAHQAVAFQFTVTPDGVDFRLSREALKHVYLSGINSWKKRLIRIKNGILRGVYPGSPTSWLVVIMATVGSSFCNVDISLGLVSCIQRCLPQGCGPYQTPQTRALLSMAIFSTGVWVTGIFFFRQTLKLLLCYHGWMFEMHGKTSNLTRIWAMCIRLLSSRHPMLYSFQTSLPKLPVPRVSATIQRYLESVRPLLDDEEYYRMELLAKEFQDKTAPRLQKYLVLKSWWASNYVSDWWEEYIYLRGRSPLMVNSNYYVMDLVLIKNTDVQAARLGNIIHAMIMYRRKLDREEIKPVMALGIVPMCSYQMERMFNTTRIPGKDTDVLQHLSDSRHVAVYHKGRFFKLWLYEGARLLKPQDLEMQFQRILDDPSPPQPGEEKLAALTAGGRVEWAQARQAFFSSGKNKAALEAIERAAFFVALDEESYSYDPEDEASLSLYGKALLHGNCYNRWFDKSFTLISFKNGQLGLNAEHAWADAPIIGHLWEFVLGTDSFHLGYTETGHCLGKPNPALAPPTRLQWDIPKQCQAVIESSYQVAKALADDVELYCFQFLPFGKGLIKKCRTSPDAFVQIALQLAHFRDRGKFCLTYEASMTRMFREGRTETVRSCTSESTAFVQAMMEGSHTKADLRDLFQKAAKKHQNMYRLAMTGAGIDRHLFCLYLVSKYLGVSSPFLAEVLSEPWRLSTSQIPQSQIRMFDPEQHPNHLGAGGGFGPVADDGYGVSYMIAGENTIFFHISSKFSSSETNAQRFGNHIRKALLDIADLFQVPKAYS

[2] = molecular target: T2, Carnitine O-palmitoyltransferase 2, mitochondrial (Homo sapiens, UniProt P23786); experiment: (§1) SUPPLEMENTARY: Inhibition of Carnitine palmitoyltransferase 2
T2 sequence (P23786 whole entry): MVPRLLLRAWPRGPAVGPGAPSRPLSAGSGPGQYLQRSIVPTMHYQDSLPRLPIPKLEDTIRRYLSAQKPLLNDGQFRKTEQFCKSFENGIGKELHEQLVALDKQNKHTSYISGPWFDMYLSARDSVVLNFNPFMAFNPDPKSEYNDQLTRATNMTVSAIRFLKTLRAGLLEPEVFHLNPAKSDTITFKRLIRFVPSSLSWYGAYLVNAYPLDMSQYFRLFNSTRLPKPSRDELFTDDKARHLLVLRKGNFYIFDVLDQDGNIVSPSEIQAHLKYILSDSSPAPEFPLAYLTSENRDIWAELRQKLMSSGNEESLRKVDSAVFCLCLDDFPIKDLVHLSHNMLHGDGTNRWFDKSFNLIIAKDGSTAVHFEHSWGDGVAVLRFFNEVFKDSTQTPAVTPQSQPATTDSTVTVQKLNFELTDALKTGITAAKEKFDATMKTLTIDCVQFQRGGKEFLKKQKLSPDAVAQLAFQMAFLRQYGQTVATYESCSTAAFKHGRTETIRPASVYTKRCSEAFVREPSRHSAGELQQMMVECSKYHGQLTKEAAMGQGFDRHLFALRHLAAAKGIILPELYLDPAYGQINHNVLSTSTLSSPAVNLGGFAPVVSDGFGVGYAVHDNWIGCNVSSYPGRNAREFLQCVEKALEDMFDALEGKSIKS

[3] = molecular target: T3, Carnitine O-palmitoyltransferase 2, mitochondrial (Rattus norvegicus, UniProt P18886); experiment: as §1
T3 sequence (P18886 whole entry): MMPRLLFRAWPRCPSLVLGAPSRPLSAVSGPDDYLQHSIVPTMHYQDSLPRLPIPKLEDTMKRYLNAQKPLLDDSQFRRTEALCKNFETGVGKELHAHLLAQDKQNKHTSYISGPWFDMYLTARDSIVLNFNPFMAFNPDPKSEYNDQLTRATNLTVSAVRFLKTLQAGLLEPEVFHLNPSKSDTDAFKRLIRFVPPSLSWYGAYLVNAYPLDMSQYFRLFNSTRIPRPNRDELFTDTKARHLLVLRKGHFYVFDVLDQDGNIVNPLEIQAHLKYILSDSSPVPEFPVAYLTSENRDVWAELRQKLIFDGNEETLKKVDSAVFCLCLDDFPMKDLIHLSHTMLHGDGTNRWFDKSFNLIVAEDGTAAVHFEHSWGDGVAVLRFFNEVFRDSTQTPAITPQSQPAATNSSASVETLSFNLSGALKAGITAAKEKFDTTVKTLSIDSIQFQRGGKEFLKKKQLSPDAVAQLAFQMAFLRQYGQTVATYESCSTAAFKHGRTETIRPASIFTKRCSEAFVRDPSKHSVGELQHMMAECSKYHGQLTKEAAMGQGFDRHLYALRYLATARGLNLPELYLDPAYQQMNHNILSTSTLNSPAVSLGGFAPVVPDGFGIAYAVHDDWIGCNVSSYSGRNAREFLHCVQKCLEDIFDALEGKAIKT

[4] = molecular target: T4, Carnitine O-palmitoyltransferase 1, liver isoform (Homo sapiens, UniProt P50416); experiment: (§2) SUPPLEMENTARY: Inhibition of Carnitine palmitoyltransferase 1, liver isoform
T4 sequence (P50416 whole entry): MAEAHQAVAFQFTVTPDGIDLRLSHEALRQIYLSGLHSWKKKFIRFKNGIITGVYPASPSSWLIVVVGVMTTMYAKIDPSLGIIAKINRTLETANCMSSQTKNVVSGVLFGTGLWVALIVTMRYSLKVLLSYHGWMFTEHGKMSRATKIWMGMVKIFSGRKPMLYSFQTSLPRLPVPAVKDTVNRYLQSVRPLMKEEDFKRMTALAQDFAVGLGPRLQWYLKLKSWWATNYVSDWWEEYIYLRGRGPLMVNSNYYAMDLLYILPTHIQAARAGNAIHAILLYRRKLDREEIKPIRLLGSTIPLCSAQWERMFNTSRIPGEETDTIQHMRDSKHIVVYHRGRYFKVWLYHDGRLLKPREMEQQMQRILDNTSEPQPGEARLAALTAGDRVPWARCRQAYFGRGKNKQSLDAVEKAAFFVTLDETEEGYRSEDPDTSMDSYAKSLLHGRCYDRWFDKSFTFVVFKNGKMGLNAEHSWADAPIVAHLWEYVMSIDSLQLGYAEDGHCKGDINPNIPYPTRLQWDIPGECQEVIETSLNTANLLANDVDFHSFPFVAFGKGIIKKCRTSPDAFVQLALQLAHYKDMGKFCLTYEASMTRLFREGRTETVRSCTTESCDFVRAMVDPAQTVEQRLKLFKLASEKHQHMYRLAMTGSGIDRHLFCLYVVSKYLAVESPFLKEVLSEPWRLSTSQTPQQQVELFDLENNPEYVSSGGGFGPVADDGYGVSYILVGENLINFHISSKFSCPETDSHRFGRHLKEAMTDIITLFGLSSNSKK

[5] = molecular target: T5, Carnitine O-palmitoyltransferase 1, liver isoform (Rattus norvegicus, UniProt P32198); experiment: as §2
T5 sequence (P32198 whole entry): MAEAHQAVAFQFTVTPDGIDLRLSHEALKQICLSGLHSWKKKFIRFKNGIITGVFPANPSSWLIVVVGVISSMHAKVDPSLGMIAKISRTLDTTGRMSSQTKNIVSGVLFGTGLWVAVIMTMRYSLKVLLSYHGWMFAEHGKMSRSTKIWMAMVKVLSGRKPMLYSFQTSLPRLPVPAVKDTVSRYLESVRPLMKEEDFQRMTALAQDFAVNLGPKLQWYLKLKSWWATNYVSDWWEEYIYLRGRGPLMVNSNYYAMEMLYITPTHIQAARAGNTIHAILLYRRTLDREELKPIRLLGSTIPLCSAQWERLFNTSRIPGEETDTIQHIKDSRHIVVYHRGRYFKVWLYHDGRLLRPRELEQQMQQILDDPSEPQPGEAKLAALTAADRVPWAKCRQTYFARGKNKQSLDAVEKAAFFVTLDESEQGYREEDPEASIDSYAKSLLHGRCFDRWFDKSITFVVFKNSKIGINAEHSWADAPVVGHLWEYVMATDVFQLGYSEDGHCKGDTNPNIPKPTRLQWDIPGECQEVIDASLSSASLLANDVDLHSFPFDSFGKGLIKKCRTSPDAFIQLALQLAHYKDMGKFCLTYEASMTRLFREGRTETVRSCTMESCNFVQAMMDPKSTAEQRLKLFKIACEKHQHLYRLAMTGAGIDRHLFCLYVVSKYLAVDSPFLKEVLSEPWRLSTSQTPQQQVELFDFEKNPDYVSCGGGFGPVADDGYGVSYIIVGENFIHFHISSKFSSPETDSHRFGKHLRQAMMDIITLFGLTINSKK

[6] = SUPPLEMENTARY: Lyophilisation Solubility Assay (LYSA); type: physicochemical; conditions: read-out: Kinetic_solubility
[7] = SUPPLEMENTARY: Lipophilicity (log D) Determination by high-throughput shake-flask; type: physicochemical; conditions: octanol/water
[8] = SUPPLEMENTARY: PAMPA permeability assay; type: physicochemical; conditions: read-out: Permeability

Row | Compound | IC50 [1] [nM] | IC50 [2] [nM] | IC50 [3] [nM] | IC50 [4] [nM] | IC50 [5] [nM] | solubility kinetic [6] [µg/mL] | logD [7] | Papp [8] [×10⁻⁶ cm/s]
1 | CS(=O)(=O)Nc1cccc(-c2n[nH]c([C@H]3CCCCN3C(=O)COc3ccccc3)n2)c1 | > 100000 | 23900 | 82800 | 146 | 175 | 103 (≈ 226 µM) | 2.27 | 2.56
2 | O=C(COc1ccccc1)N1CCCC[C@@H]1c1nc(-c2ccc(F)c(F)c2)n[nH]1 | > 100000 | > 100000 | > 100000 | 239 | 598 | 77 (≈ 193 µM) | 2.77 | 1.72
3 | COc1ccc(Cl)cc1S(=O)(=O)N1CCOc2c(Cl)cc(C(=O)Nc3nc(CC(=O)O)cs3)cc21 | 1180 | > 100000 | > 100000 | 50.3 | 54 | 12 (≈ 21.5 µM) | 2.28 | 2.6
4 | Cc1cc(-c2nc([C@H]3CCCCN3C(=O)COc3ccccc3)no2)n(C)n1 | > 100000 | 16300 | > 100000 | 228 | 330 | 55 (≈ 144 µM) | 3.13 | 6.42
5 | O=C1COc2cc(C#C[C@H]3CCCCN3C(=O)COc3ccccc3)ccc2N1 | > 100000 | > 100000 | > 100000 | 154 | 205 | 2 (≈ 5.12 µM) | 3.51 | 1.09
6 | O=C([C@H]1CCCCN1C(=O)COc1ccccc1)N1Cc2cc(Cl)c(N3CCOCC3)cc2C1 | > 100000 | 388 | 496 | 145 | 121 | 36 (≈ 74.4 µM) | 3.24 | 5.91
7 | O=C([C@H]1CCCCN1C(=O)COc1ccccc1)N1Cc2cc(F)c(OC3CCOCC3)cc2C1 | > 100000 | 507 | 1310 | 210 | 76.8 | 37 (≈ 76.7 µM) | 2.45 | 3.57
8 | CC(=O)Nc1ccc(-c2noc([C@H]3CCCCN3C(=O)C#Cc3ccccc3)n2)cc1C(F)(F)F | > 100000 | > 100000 | > 100000 | 260 | 7980 | 1 (≈ 2.07 µM) | > 3 | 1.5
9 | N#Cc1cccc(-c2n[nH]c([C@H]3CCCCN3C(=O)COc3ccccc3)n2)c1 | > 100000 | 29800 | 33800 | 161 | 219 | 31 (≈ 80 µM) | 2.98 | 2.96

The next lines start with the values.

Row | IC50 [1] [nM] | IC50 [2] [nM] | IC50 [3] [nM] | IC50 [4] [nM] | IC50 [5] [nM] | solubility kinetic [6] [µg/mL] | logD [7] | Papp [8] [×10⁻⁶ cm/s] | Compound
10 | 2320 | 579 | 4270 | 71.6 | 51.8 | 12 (≈ 24.1 µM) | 2.36 | 0.47 | COc1ccc(Cl)cc1S(=O)(=O)c1cn(C)c2ccc(C(=O)Nc3ccc(C(=O)O)cc3)cc12
11 | 8100 | > 100000 | > 100000 | 84.7 | 99.9 | > 526 | 1.15 | 0.23 | COc1ccc(Cl)cc1S(=O)(=O)N1CCc2ccc(C(=O)Nc3ccn(CC(=O)O)n3)cc21
12 | 920 | 1500 | 2500 | 18.8 | 11.2 | 3 (≈ 6.4 µM) | 2.54 | 1.01 | Cn1cc(S(=O)(=O)c2cccc(Cl)c2)c2cc(C(=O)Nc3ccc(C(=O)O)cc3)ccc21
13 | 27700 | > 100000 | > 100000 | 146 | 140 | > 685 | -1.31 | 0.07 | CCOc1ccc(C(=O)Nc2ccc(C(=O)O)c(F)c2)cc1N(CCS(=O)O)S(=O)(=O)c1cc(Cl)ccc1OC
14 | 491 | > 100000 | > 100000 | 180 | 147 | 319 (≈ 711 µM) | 0.72 | 0.43 | COc1ccc(Cl)cc1Cc1c[nH]c2ccc(C(=O)Nc3ccc(CC(=O)O)cc3)cc12
